Experimental data reported in publication PMC6452685, “Lysyl-tRNA synthetase as a drug target in malaria and cryptosporidiosis” (Proceedings of the National Academy of Sciences of the …, 2019).
In brackets after ≈: the same amount, converted by molar mass. Where two headings read alike, the source gives them in different places.

What was measured:
FaSSIF solubility = format: physicochemical; conditions: 37 °C, thermodynamic from solid; FaSSIF pH 6.5
Method: 4.1 Aque ous s olubilit y
Compounds were subject to serial dilution from 10 mM to 0.47 mM in DMSO. An al i quot was then mi xed wi th Mi l li Q water to obtai n a n aq ueous di l uti on pl ate wi th a fi na l concentrati on rang e of 250 - 13 µM, with a final DMSO concentration of 2. 5 % (v /v ). Triplicate al i quots were transferred to a fl at bottomed pol ystyrene pl ate whi ch was i mmedi ately read o n the NEPHELOstar (BMG Lab Techn ol ogi es). […]
Drug dissolution in biorelevant media which simulates the liquid environment within the upper […]
into the blood stream and is more a more accurate determination of oral d os e s ol ubi li t y t han si mple aqueous sol ubi l i ty performed at neutral pH and wi thout any associ ated bil e aci ds and fats. This method i s based on that of Fagerberg et al. (16) where the FaSSIF has pH 6.5 a nd c ontains 3 mM sodium taurocholate and 0.7 5 mM lectithin. FaSSIF blank only has pH 6.5 and is devoid of salts and […]
[…] The sampl e i s then centri fuged at 10,00 0 rpm for 3 mi n befo re th e supernatant i s subject to HPLC analysis at 254 nm UV detecti on wavel ength. Typi call y, 10 µ l supernatant injections are suffi ci ent to achi eve peak areas whi ch fal l wi thi n the 6 p oi nt standar d curv e of anal y te concentrati ons i njected onto the col umn, al thoug h thi s may be i ncreas ed up to 40 µl for more insoluble compounds where necessary. […]

[1] = test system: P. vivax liver schizonts/hypnozoites; assay: P. vivax liver schizonts/hypnozoites (prophylactic mode); format: cell-based; conditions: Plasmodium vivax
Method: Thi s i s bas ed on met hods prev i ous l y report ed (12 ). In bri ef, HepG 2-A1 6-CD81EGFP cel l s were cul tured at 3 7 °C i n 5% C O2 in DMEM me dia. For both P. berghei-Luc and HepG2 cytotoxi ci ty assays, 3x 10**3 of the HepG2-A16-CD81EGFP20 cells in 5 µl of assay medi um (DMEM wi thout Phenol Red (Li fe Techn ol ogi es, CA), 5% FBS, and 5x Pen Stre p Gl utami ne (Li fe Techn ol ogi es, CA)) at concentrati o n 6x 10**5 cel l s /ml were s eeded i n white s oli d bottom 153 6-well pl at es (cus t om G NF mol d ref# 7891 73-F, Grei ner Bi o-One), 2 0-26 h prior to sporozoites infection. […]
pri or t o i nfect i on 5 0 nl of comp ounds i n 1:3 s eri al di l ut i ons in DMSO (0. 5% fi nal DMSO concentrati on per w el l ) w ere t rans ferred w i t h an Acous ti c Trans fer Sy s t em (ATS) (Bi os ero) t o the cells. Atovaquone (5µ M) and pu romy ci n (1 0 µM) at a single concentration were used as pos i t i v e cont rol s for the Pbluc and He pG 2tox , res pecti v el y . 0. 5% DMSO was us ed as neg ati v e control for both as s ay s . […]
[…] Immediately after addition of the luminescence reagent, the luminescence was measured by the Env i s i on M ul t il abel Reader (Perk i nEl mer). […]
Thi s is a modification of the previously reported method (13). […]

Molecule O=C(NCC1(O)CCC(F)(F)CC1)c1cc(=O)c2cc(F)ccc2o1 [Compound 5] has a solubility at 5 h (FaSSIF solubility) of 255 µM (≈ 90.6 µg/mL), an EC50 ([1]; hypnozoites, read-out: P. vivax hypnozoites EC50 (prophylactic mode)) of over 10000 nM and an EC50 ([1]; liver schizonts, read-out: P. vivax liver schizonts EC50 (prophylactic mode)) of 950 nM.
